In patent publication US6465187B1, “Method of treatment” (Innoventus Project AB, priority 2000, dated 2002):
Like-named read-outs stand apart in the source and are kept apart here.

Key:
[1] = test system: A1 gene; assay: RNAse Protection Assay (RPA) of A1 gene expression in MCP5/L mast cells; format: cell-based, mouse
Description: Activation of mast cells in vitro. For FcεRI-dependent activation, MCP5/L cells were resuspended at 1×10^6 cells/ml and sensitized using a monoclonal murine IgE anti-TNP (trinitrophenyl) (IgEl-b4, ATCC, Manassas, Va.) antibody (15% hybridoma supernatant) for 90 min. The cells were washed twice with warm medium, followed by challenge with 1 μg/ml TNP-BSA for time periods indicated. For cell viability assays, both the anitbody sensitization and the anitgen challenge were performed in RPMI medium supplemented with 0.5% BSA (Sigma) at 37° C. in a humidified incubator containing 5% CO2. For gene regulation studies, all the incubations were carried out in RPMI medium supplemented with 5% fetal bovine serum and antibiotics on a rocker platform. In some experiments, cells were cross-linked in the medium containing 1 mM EDTA or cells were incubated in ice-cold water during FcεRI cross-linking. Where indicated, various inhibitors were introduced to test their effects on A1 regulation after FcεRI cross-linking. These include bisindolylmaleimid (100 nM), wortmannin (100 nM), SB 203580 (pyridinylimidazole compound, inhibitor of p 38 mitogen-activated protein kinase) (1 μM), PD 98059 (2-(2-amino-3-methoxyphenyl)-4-oxo-4H-[1]benzopyran, inhibitor of mitogen-activated protein kinase Kinase-1 (MEK1)) (10 μM), genistein (1 μM), suramin (100 μM), cyclosporin A (2 μg/ml), dexamethasone (1 μM) and cycloheximide (10 μg/ml). Dexamethasone and suramin were added 14 hr and 24 hr, respectively, before IgE sensitization. All the other inhibitors were added at the same time as FcεRI aggregation. […]
Isolation of RNA and RNAse Protection Assay (RPA) analysis. […] Pixel intensity was determined using a phosphoimaging device. Levels of each gene transcript were quantified by MacBas V2.2 (Fuji Photo Film Co. Ltd., Japan). […]

[2] = test system: MCP5/L cells; assay: Cell viability by trypan blue exclusion in medium deprived of serum and growth factors; format: cell-based, mouse; details: 4 days in medium deprived of serum and growth factors, FIG. 7
Description: The growth factor dependent mouse mast cell line MCP5/L was maintained in the same medium described above. For cell viability assays, the cell suspension was mixed with the vital dye, trypan blue, and only the number of live cells was scored.
For cell viability assays, both the anitbody sensitization and the anitgen challenge were performed in RPMI medium supplemented with 0.5% BSA (Sigma) at 37° C. in a humidified incubator containing 5% CO2.
Cell viability measurement. Trypan blue exclusion assay was used in all of the cell survival experiments. In brief, cell suspension was mixed with the vital dye, trypan blue, and the number of live cells was scored.

[3] = test system: MCP5/L cells; details: IgE-receptor cross-linkage 30 min, various concentrations of EDTA, FIG. 8B
Description: Activation of mast cells in vitro. For FcεRI-dependent activation, MCP5/L cells were resuspended at 1×10^6 cells/ml and sensitized using a monoclonal murine IgE anti-TNP (trinitrophenyl) (IgEl-b4, ATCC, Manassas, Va.) antibody (15% hybridoma supernatant) for 90 min. The cells were washed twice with warm medium, followed by challenge with 1 μg/ml TNP-BSA for time periods indicated. For cell viability assays, both the anitbody sensitization and the anitgen challenge were performed in RPMI medium supplemented with 0.5% BSA (Sigma) at 37° C. in a humidified incubator containing 5% CO2. […]
Measurement of release. […] The reaction was stopped by adding glycine (0.2 M, pH 10.7) into each well and the absorbance was measured. Percentage of β-hexosaminidase release is calculated as the absorbance of the supernatant over that of the combination of supernatant and lysate. […]
Effects of cold incubation and EDTA treatment on A1 induction and mast cell degranulation. […] (B) and (C) levels of β-hexosaminidase (β-hex) in the supernatants from either control cells or cells stimulated through IgE-receptor cross-linkage for 30 min, in the absence or presence of various concentrations of EDTA (B), or in cold incubation (C), were determined as a measurement of activation and de-granulation by an enzymatic colorimetric assay

Structure (SMILES): C[C@H](CCC(=O)O)C[C@H](C)C[C@H](C)C(=O)/C=C(\O)[C@H](C)C[C@H](C)C/C=C/[C@@H](C)[C@@H](O)[C@@H](C)[C@@H](O)C[C@@H]1CC[C@@](C)([C@H]2CC[C@@](C)([C@@H](C)O)O2)O1 [ionomycin]
- A1 gene expression (transcription) induced by the compound alone ([1]; MCP5/L cells exposed for 6 hr, c48/80 at concentrations of up to 1 mg/ml, FIG. 7): induced expression of A1
- Survival of mast cells treated with the compound [2]: promoted mast cell survival

Structure (SMILES): O=C(O)CN(CCN(CC(=O)O)CC(=O)O)CC(=O)O [EDTA]
- A1 induction by FcεRI aggregation in the presence of inhibitor [1]: blocked A1 expression
- β-hexosaminidase release following FcεRI aggregation in the presence of the compound [3]: inhibit release of mast cell granular enzyme β-hexosaminidase

Structure (SMILES): C[C@@H]1C[C@@H]([C@H](O)CC2CC(=O)NC(=O)C2)C(=O)[C@@H](C)C1 [cycloheximide]
- A1 induction by FcεRI aggregation in the presence of inhibitor ([1]; MCP5/L cells, FcεRI crosslinkage 6 hr, wortmannin 100 nM, cyclosporin A 2 μg/ml, cycloheximide 10 μg/ml, dexamethasone 1 μM, EDTA 1 mM, FIG. 8A, 9): could completely block A1 induction
